From patent EP0321273A2, “Thioformamide derivatives” (RHONE POULENC RORER LIMITED, priority 1987, dated 1989)

What was measured:
isolated rat aorta [1] = assay: Test A: activity against contractions induced by low K+ concentrations (20 mM K+) in the isolated rat aorta; type: cell-based; details: concentration reducing the contraction induced by 20 mM K⁺ by 90%; rat thoracic aorta strips denuded of endothelium, Krebs solution, cumulative concentrations; read-out: Activity Test A EC₉₀
Description: (§1) The test methods used were adapted from those described by Winslow et al [Eur.J.Pharmacol., 131, 219-228 (1986)] and Karaki [J.Pharmacol. Methods, 18, 1-21 (1987)] for differentiating vaso-relaxant activity.
Test A : Activity against contractions induced by low K⁺ concentrations in the isolated rat aorta
Thoracic aorta was removed from rats and transverse strips, denuded of endothelium, were suspended in a bath containing Krebs solution. The tension was recorded and a contraction induced by addition of 20 mM K⁺ (potassium ion) to the bathing solution. The test compound was added to the bath as a solution in increasing cumulative concentration. The concentration in the bathing solution of the test compound which reduced the K⁺-induced contraction by 90% was determined and expressed in µM as the effective concentration (EC₉₀), given in Table I.

isolated rat aorta [2] = assay: Test B: activity against contractions induced by high K+ concentrations (60 mM K+) in isolated rat aorta; type: cell-based; details: contraction induced by 60 mM K⁺; rat thoracic aorta strips denuded of endothelium, cumulative addition; read-out: concentration in the bath reducing the K⁺-induced contraction by 90%
Description: as §1
Test B : Activity against contractions induced by high K⁺ concentrations in isolated rat aorta
The test method was as in Test A except that contractions were induced by addition of 60 mM K⁺ to the bathing solution. The cumulative addition of solutions of the test compound was conducted and the concentration in the bath reducing the K⁺-induced contraction by 90% was greater than 30µM for Compounds C, D, E, F, I, J and K, and much greater than 30µM for Compound A. Table I

Row | EC90 (isolated rat aorta [1]) [µM] | IC90 (isolated rat aorta [2]) [µM] | Structure (SMILES)
1 | 29 | > 30 | CNC(=S)C1(c2ccccc2)CCCCC1=O (racemic) [Compound A, (±)-N-methyl-2-oxo-1-phenylcyclohexanecarbothioamide]
2 | > 30 | > 30 | CNC(=S)C1(c2ccccc2)CCCCC1=NO (racemic) [Compound C, (±)-anti-N-methyl-2-hydroxyimino-1-phenylcyclohexanecarbothioamide]
3 | 20 | > 30 | CNC(=S)C1(c2ccccc2)CCCCC1=NOC (racemic) [Compound D, (±)-anti-N-methyl-2-methoxyimino-1-phenylcyclohexanecarbothioamide]
4 | 0.7 | > 30 | CNC(=S)C1(c2cccc([N+](=O)[O-])c2)CCCCC1=O (racemic) [Compound K, (±)-N-methyl-2-oxo-1-(3-nitrophenyl)cyclohexanecarbothioamide]
5 | 12 | > 30 | CNC(=S)C1(c2ccc(Cl)cc2)CCCCC1=O (racemic) [E, (±)-N-methyl-2-oxo-1-(4-chlorophenyl)cyclohexanecarbothioamide]
6 | 0.9 | > 30 | CNC(=S)C1(c2cccc(C(F)(F)F)c2)CCCCC1=O (racemic) [F, (±)-N-methyl-2-oxo-1-(3-trifluoromethylphenyl)cyclohexanecarbothioamide]
7 | 0.6 |  | CNC(=S)C1(c2ccccc2)CCCCC1=NOCc1ccc(F)cc1 (racemic) [H, (±)-anti-N-methyl-2-(4-fluorobenzyloxyimino)-1-phenylcyclohexanecarbothioamide]
8 | 2 | > 30 | CNC(=S)C1(c2ccc3ccccc3c2)CCCCC1=O (racemic) [I, (±)-N-methyl-2-oxo-1-(2-naphthyl)cyclohexanecarbothioamide]
9 | 0.4 | > 30 | CNC(=S)C1(c2ccc(Cl)c(Cl)c2)CCCCC1=O (racemic) [J, (±)-N-methyl-2-oxo-1-(3,4-dichlorophenyl)cyclohexanecarbothioamide]
